The source of these data is ChEMBL document CHEMBL4673207, “Recent advances in the discovery of potent and selective HDAC6 inhibitors” (Eur J Med Chem, 2018).

Experiment [1] has as its target NAD-dependent protein deacetylase sirtuin-2 (Homo sapiens, UniProt Q8IXJ6). As to the kind of experiment: Inhibition of human sirtuin 2 using fluoro-lysine sirtuin 2 deacetylase as substrate incubated for 60 mins by fluorimetry.
Experiment [2] concerns the target NAD-dependent protein deacetylase sirtuin-1 (Homo sapiens, UniProt Q96EB6). The experiment can be described thus: Inhibition of human sirtuin 1 using fluorogenic HDAC substrate incubated for 20 mins by fluorimetry.
The subject of another experiment is OPM-2. As to the kind of experiment: Cytotoxicity against human OPM-2 cells incubated for 48 hrs by MTT assay. The experiment is classed as functional, cell-based. Particulars: OPM-2, 48 h. (Tetrazolium assays rely on reduction of a dye to a coloured formazan, in cell work by metabolically active cells.)
The subject of another experiment is MM1.S. As to the kind of experiment: Cytotoxicity against human MM1.S cells incubated for 48 hrs by MTT assay. The experiment is classed as functional, cell-based.
Experiment [3] deals with T1, Histone deacetylase 9 (Homo sapiens, UniProt Q9UKV0). As to the kind of experiment: Inhibition of human HDAC9 using fluorogenic HDAC substrate incubated for 30 mins by fluorimetry.
T1 sequence (Q9UKV0 whole entry): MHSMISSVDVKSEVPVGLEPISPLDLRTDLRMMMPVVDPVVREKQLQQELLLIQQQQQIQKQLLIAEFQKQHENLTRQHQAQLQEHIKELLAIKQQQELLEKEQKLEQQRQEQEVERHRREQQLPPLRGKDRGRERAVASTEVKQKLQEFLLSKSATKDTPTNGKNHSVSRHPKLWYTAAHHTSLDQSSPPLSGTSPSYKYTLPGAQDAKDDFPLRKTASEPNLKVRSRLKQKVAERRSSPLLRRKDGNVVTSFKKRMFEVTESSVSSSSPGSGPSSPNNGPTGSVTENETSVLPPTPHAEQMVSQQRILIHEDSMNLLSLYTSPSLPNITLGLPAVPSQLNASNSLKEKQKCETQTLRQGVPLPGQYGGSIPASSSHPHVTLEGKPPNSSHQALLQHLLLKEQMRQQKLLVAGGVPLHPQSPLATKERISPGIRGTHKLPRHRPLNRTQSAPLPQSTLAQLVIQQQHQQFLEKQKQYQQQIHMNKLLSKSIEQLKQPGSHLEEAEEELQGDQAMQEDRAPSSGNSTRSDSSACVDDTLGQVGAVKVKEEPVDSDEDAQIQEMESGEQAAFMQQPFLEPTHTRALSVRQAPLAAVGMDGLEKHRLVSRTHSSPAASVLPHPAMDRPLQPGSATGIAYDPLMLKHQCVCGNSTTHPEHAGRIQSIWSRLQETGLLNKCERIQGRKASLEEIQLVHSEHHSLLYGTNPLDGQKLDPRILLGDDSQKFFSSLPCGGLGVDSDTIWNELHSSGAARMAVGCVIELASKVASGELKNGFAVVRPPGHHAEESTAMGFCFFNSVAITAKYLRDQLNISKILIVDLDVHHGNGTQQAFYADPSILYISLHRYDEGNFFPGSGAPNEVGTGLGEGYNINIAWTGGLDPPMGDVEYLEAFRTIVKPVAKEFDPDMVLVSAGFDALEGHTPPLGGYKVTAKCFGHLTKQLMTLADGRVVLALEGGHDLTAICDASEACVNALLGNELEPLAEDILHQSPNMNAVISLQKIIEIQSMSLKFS
The target of experiment [4] is T2, Histone deacetylase 8 (Homo sapiens, UniProt Q9BY41). The experiment can be described thus: Inhibition of human HDAC8 using fluorogenic HDAC substrate incubated for 60 mins by fluorimetry.
The target of experiment [5] is T3, Histone deacetylase 5 (Homo sapiens, UniProt Q9UQL6). As to the kind of experiment: Inhibition of human HDAC5 using fluorogenic HDAC substrate incubated for 30 mins by fluorimetry.
T3 sequence (Q9UQL6 whole entry): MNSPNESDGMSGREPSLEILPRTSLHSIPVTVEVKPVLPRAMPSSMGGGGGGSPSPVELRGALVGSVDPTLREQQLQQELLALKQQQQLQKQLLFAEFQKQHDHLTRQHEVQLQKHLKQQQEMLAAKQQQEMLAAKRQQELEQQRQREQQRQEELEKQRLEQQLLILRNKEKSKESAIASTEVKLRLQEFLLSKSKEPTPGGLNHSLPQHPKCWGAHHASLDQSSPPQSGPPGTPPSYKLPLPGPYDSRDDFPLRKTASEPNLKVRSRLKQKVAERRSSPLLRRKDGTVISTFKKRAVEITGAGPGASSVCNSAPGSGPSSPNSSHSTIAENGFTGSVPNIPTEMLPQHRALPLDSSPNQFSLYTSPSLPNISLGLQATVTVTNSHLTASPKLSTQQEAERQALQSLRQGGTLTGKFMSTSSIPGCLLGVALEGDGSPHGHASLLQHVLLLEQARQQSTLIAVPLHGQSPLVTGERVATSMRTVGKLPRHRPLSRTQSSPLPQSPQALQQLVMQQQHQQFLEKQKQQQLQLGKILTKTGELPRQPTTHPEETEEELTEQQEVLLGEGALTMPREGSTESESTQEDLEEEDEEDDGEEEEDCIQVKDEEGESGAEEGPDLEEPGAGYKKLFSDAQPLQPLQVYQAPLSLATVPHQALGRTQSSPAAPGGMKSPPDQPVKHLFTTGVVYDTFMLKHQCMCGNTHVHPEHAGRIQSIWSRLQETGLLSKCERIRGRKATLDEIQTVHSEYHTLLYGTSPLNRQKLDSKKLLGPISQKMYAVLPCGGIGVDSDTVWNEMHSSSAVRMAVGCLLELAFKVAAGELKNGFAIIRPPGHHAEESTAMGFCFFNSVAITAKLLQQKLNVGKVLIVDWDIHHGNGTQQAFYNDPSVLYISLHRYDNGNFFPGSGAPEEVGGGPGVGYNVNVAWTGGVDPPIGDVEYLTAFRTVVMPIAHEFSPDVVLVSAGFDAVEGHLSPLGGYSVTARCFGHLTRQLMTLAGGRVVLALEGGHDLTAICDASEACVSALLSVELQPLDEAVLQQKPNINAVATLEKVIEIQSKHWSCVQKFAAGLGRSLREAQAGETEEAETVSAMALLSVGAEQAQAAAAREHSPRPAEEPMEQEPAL
Experiment [6] concerns the target T4, Histone deacetylase 4 (Homo sapiens, UniProt P56524). The experiment can be described thus: Inhibition of human HDAC4 using fluorogenic HDAC substrate incubated for 30 mins by fluorimetry.
For experiment [7], the target named is T5, Histone deacetylase 11 (Homo sapiens, UniProt Q96DB2). The experiment can be described thus: Inhibition of human HDAC11 using fluorogenic HDAC substrate incubated for 30 mins by fluorescence method.
T5 sequence (Q96DB2 whole entry): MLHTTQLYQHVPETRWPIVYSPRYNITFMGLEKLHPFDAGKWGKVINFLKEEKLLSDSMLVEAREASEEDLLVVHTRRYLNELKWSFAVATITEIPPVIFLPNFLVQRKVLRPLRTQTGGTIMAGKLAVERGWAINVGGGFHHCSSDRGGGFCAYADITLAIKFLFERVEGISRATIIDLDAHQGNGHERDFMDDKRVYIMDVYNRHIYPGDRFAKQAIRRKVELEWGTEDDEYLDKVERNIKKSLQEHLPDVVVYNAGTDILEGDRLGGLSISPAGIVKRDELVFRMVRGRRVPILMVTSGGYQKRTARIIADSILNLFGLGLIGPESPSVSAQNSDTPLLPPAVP
The target of experiment [8] is T6, Polyamine deacetylase HDAC10 (Homo sapiens, UniProt Q969S8).
T6 sequence (Q969S8 whole entry): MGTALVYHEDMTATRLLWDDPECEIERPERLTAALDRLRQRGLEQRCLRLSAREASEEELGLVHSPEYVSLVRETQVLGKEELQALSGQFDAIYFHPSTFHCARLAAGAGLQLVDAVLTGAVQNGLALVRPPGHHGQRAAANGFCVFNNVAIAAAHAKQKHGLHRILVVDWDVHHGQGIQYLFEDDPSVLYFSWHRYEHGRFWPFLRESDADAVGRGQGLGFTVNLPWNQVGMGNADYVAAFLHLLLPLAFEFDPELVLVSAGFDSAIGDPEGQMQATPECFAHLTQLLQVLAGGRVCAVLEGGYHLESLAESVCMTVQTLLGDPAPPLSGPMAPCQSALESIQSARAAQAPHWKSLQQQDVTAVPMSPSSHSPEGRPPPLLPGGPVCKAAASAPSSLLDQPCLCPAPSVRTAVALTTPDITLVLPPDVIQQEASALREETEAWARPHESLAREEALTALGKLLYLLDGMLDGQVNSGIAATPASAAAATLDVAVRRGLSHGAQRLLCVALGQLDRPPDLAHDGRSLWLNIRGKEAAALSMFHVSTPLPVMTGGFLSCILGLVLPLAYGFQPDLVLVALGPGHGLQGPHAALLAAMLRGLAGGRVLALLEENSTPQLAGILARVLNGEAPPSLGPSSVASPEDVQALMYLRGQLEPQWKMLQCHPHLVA
As to the kind of experiment: Inhibition of human HDAC10 using fluorogenic HDAC substrate incubated for 45 mins by fluorimetry.

Experiment [9] addresses T7, Histone deacetylase 3 (Homo sapiens, UniProt O15379). As to the kind of experiment: Inhibition of human HDAC3 using fluorogenic HDAC substrate incubated for 10 mins by spectrophotometric method.
Experiment [10] deals with T8, Histone deacetylase 2 (Homo sapiens, UniProt Q92769). As to the kind of experiment: Inhibition of human HDAC2 using fluorogenic HDAC substrate incubated for 15 mins by fluorimetry.
T8 sequence (Q92769 whole entry): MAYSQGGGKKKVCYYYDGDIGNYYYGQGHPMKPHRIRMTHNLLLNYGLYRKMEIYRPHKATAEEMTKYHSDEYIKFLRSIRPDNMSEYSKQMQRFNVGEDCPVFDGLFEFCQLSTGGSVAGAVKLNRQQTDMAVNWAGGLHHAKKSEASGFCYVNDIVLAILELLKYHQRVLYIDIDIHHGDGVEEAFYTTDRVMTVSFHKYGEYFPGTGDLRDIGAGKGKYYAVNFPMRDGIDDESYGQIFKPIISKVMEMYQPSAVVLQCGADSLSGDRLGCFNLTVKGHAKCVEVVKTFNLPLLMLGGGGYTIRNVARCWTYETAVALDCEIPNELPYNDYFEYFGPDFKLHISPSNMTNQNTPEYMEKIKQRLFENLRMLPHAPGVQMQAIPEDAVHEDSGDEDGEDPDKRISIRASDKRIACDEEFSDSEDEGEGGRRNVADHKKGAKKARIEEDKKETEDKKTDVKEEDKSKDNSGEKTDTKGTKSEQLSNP
Experiment [11] addresses T9, Protein deacetylase HDAC6 (Homo sapiens, UniProt Q9UBN7).
T9 sequence (Q9UBN7 whole entry): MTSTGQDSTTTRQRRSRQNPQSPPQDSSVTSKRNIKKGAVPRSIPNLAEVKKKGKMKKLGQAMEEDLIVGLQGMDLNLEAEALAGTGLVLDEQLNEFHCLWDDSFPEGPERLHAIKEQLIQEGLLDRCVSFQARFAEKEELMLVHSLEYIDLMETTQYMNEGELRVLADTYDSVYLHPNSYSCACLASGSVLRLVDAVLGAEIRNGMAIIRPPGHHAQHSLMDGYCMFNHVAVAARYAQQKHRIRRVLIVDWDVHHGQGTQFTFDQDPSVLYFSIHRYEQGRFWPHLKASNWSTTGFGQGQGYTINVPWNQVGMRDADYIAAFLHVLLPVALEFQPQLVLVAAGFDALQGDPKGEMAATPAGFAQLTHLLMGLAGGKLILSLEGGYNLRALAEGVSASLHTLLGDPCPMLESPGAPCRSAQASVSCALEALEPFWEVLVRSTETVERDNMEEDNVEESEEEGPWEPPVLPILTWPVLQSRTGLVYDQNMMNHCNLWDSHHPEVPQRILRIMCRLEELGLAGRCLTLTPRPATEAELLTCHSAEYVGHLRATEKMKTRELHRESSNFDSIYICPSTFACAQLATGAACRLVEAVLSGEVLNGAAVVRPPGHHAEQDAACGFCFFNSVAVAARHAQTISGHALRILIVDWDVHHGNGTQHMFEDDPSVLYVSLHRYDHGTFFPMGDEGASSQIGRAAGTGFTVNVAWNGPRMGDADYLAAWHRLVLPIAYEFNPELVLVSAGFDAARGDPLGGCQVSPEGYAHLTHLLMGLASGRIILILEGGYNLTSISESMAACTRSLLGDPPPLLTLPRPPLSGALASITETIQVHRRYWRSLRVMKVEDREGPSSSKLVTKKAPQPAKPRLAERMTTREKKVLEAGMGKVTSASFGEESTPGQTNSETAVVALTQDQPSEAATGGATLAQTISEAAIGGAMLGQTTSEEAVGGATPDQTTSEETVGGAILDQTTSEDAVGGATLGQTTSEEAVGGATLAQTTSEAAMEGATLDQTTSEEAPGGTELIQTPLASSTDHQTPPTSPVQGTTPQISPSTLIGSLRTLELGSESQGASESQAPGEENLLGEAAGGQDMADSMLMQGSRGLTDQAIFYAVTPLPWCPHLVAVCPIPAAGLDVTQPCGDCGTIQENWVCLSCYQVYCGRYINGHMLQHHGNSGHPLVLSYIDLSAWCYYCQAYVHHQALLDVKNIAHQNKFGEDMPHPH
The experiment can be described thus: Inhibition of human HDAC6 using fluorogenic HDAC substrate incubated for 30 mins by fluorimetry.

In experiment [12] the target is T10, Histone deacetylase 1 (Homo sapiens, UniProt Q13547). The experiment can be described thus: Inhibition of human HDAC1 using fluorogenic HDAC substrate incubated for 15 mins by fluorimetry.
T10 sequence (Q13547 whole entry): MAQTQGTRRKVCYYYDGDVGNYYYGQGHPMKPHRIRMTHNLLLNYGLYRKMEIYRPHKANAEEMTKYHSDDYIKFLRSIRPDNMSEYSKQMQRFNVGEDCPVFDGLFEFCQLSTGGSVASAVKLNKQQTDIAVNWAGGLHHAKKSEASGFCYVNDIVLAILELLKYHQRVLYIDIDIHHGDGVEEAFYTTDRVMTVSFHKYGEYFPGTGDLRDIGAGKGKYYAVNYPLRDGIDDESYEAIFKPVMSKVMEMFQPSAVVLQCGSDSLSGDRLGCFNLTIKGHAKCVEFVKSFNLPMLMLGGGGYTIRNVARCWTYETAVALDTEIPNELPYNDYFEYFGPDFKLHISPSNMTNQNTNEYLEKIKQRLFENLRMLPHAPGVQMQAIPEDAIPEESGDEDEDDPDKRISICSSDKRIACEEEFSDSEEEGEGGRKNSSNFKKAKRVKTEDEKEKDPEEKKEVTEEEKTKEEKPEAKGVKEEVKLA
The species named for a further experiment is Homo sapiens. The experiment can be described thus: Selectivity ratio of IC50 for human HDAC1 to IC50 for human HDAC6.
The target in experiment [13] is T9, Protein deacetylase HDAC6. The experiment can be described thus: Inhibition of recombinant human HDAC6 expressed in baculovirus infected sf9 cells using fluor-de-Lys-SIRT1 as substrate by fluorescence method.
In another experiment the test system is HCT-116. The experiment can be described thus: Antitumor activity against human HCT116 cells xenografted in BALB/c athymic nude mouse assessed as tumor growth inhibition at 20 mg/kg administered twice daily for 14 days and measuring daily during compound dosing relative to control. In kind it is functional. Particulars: HCT-116, 336 h, time 14 day, read-out: TGI. A general note: In xenograft studies the graft and the host belong to different species.

A further experiment concerns SH-SY5Y. The experiment can be described thus: Antiproliferative activity against human SH-SY5Y cells incubated for 72 hrs by sulphorhodamine B assay. The experiment is classed as functional, cell-based. On the technique in general: The SRB assay estimates cell density from bound dye.
A further experiment relates to KMS-11. The experiment can be described thus: Antiproliferative activity against human KMS-11 cells incubated for 72 hrs by sulphorhodamine B assay. In kind it is functional.
Experiment [14] concerns the target T9, Protein deacetylase HDAC6. As to the kind of experiment: Inhibition of HDAC6 (unknown origin) using (AMC)-labelled p53 peptide( 379 to 382 residues) RHKKAc as substrate.
Experiment [15] addresses T10, Histone deacetylase 1. The experiment can be described thus: Inhibition of HDAC1 (unknown origin) using (AMC)-labelled p53 peptide( 379 to 382 residues) RHKKAc as substrate.
The target in experiment [16] is T6, Polyamine deacetylase HDAC10. As to the kind of experiment: Inhibition of HDAC10 (unknown origin).
Experiment [17] concerns the target T1, Histone deacetylase 9. As to the kind of experiment: Inhibition of HDAC9 (unknown origin).
The target of experiment [18] is T3, Histone deacetylase 5. As to the kind of experiment: Inhibition of HDAC5 (unknown origin).
In experiment [19] the target is T4, Histone deacetylase 4. As to the kind of experiment: Inhibition of HDAC4 (unknown origin).
The target in experiment [20] is T7, Histone deacetylase 3. As to the kind of experiment: Inhibition of HDAC3 (unknown origin).
Experiment [21] has as its target T10, Histone deacetylase 1. The experiment can be described thus: Inhibition of HDAC1 (unknown origin).
Experiment [22] has as its target T8, Histone deacetylase 2. As to the kind of experiment: Inhibition of HDAC2 (unknown origin).
Experiment [23] has as its target T5, Histone deacetylase 11. The experiment can be described thus: Inhibition of HDAC11 (unknown origin).
Experiment [24] deals with T2, Histone deacetylase 8. The experiment can be described thus: Inhibition of HDAC8 (unknown origin).
The target of experiment [25] is T9, Protein deacetylase HDAC6. As to the kind of experiment: Inhibition of HDAC6 (unknown origin).

What is called IC50 is the concentration at which inhibition is half-maximal. As usually defined, the GI50 is the concentration at which growth is held to half of that of the control. A low value points to more potent growth inhibition.

T4 sequence (P56524 whole entry): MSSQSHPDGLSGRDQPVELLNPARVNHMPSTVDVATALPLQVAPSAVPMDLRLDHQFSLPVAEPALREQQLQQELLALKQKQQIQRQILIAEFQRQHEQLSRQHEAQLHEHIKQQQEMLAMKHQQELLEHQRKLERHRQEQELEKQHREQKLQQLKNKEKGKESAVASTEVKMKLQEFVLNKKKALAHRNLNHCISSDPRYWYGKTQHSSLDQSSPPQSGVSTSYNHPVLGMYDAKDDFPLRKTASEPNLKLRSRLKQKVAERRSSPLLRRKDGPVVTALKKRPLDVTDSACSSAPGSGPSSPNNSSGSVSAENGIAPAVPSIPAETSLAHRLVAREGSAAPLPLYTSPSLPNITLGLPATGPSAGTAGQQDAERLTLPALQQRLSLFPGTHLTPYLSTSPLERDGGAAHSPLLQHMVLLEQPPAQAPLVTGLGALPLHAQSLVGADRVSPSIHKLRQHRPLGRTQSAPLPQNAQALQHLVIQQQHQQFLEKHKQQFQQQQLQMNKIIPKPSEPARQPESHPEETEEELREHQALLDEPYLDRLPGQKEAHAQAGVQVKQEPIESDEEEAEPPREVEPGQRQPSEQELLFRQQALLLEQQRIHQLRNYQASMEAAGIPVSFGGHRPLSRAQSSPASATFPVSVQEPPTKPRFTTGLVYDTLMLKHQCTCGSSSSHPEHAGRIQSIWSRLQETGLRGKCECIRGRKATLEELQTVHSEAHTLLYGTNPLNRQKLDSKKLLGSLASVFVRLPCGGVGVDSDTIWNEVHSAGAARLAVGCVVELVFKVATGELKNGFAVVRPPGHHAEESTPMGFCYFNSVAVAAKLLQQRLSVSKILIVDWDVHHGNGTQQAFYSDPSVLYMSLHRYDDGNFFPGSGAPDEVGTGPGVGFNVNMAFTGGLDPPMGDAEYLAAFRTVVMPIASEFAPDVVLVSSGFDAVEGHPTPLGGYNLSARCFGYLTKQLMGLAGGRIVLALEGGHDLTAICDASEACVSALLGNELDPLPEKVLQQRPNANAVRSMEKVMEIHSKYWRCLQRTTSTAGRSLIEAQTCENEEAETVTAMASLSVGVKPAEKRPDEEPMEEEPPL
T7 sequence (O15379 whole entry): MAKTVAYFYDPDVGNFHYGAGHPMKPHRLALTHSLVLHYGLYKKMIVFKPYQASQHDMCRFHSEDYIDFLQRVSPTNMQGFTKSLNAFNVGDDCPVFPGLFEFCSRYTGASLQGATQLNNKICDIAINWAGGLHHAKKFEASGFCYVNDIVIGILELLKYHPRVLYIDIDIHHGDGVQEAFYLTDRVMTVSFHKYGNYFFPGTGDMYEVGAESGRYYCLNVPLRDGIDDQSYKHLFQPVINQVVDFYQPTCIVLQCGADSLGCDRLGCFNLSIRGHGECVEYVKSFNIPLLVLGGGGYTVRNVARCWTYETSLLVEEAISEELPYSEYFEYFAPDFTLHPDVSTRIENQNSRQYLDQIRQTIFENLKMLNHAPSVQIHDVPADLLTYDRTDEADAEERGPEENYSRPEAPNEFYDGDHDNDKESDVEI

As for `O=C(CCCCCCNC(=O)c1cnc(N(c2ccccc2)c2ccccc2)nc1)NO` [RICOLINOSTAT], the IC50 was above 1 µM in [1], above 1 µM in [2], 2 µM in the experiment with OPM-2 and 2 µM in the experiment on MM1.S.
As to `O=C(NO)c1ccc(Cn2c3c(c4ccccc42)S(=O)(=O)CC3)cc1`, the IC50 against Histone deacetylase 9 [3] was 0.1 µM; against Histone deacetylase 8 [4], 1 µM; on Histone deacetylase 5 [5], 1 µM; on Histone deacetylase 4 [6], 1 µM; at Histone deacetylase 11 [7], above 5 µM; in [8], above 5 µM. Moreover, the IC50 against Histone deacetylase 3 [9] was above 5 µM; against Histone deacetylase 2 [10] it was above 5 µM; in experiment [11] it was 0.0082 µM; on Histone deacetylase 1 [12], above 5 µM.
Turning to `Cc1nc2ccccc2n1Cc1ccc(C(=O)NO)cc1F`, the Ratio IC50 in the experiment filed under Homo sapiens stood at 1400.
Turning to `COc1cc(C(=O)OCCCCCCCOC(=O)c2ccc(O)c(OC)c2)ccc1O`, in experiment [13], the IC50 is 0.2 µM.
For `CC(/C=C/C(=O)NO)=C\c1ccc(NS(=O)(=O)c2ccc(N(CCCl)CCCl)cc2)cc1`, in the experiment on HCT-116, the inhibition in vivo at 20 mg/kg was found to be 78%. The results for the IC50 (in the experiment with SH-SY5Y; in experiment [14]; at Histone deacetylase 1 [15]) were 0.28 µM, 0.479 µM and 14 µM, respectively. Besides, in the experiment on KMS-11, it took 0.48 µM to inhibit growth by half (GI50).
For `O=C(NO)c1ccc(CN2c3ccccc3S(=O)(=O)C[C@@H]3CCCC[C@@H]32)cc1`, the IC50 (in experiment [16]; at Histone deacetylase 9 [17]; on Histone deacetylase 5 [18]; against Histone deacetylase 4 [19]; against Histone deacetylase 3 [20]; at Histone deacetylase 1 [21]) was above 8 µM in each case. Moreover, the half-inhibitory concentration (IC50) is above 8 µM against Histone deacetylase 2 [22], 2.4 µM against Histone deacetylase 11 [23], 1.1 µM on Histone deacetylase 8 [24] and 0.008 µM in experiment [25].
